Patent US20180280429A1, “APPLICATION OF NITRATE IN PREPARATION OF DRUG PREVENTING OR TREATING BONE METABOLIC DISEASES” (Capital Medical University, priority 2015, published 2018)

Tests used:
[1] = Measurement of nitrate and nitrite in serum (Griess); format: in vivo, SD rats; conditions: after drinking water containing nitrate for 3 months, *p<0.05
From the text: (§1) 12-week-old female SD rats were selected for the osteoporosis model and bilateral ovaries of them were removed. The experiment objects were divided into 3 groups: the sham operation group (Sham), the ovariectomized group (OVX) and the nitrate group (Nitrate), and there were 10 rats in each group. In the nitrate group, drinking water with sodium nitrate was given on the second day after ovariectomy (ovarianectomy) at a concentration of 2.5 mmol/L, and the daily intake of nitrate in each rat was about 0.5 mmol/Kg bw, the water with nitrate was given for 12 weeks, while normal drinking water was given in the other groups.
(1) Preparation of the standard: the double dilution of the original standard was 200 μM-3.125 μM
(2) Determination of Nitrite Concentration:
1) Adding 50 μl reaction buffer to blank holes;
2) Adding 50 μl sample or standard to reaction buffer;
3) Adding 50 μl of reaction buffer to each hole in sequence;
4) Adding 50 μl of Griess Reagent I in each hole in sequence;
5) Adding 50 μl of Griess Reagent II to each hole and incubating at room temperature for 10 minutes;
6) Reading the OD value at 540 nm with a microplate reader and the value at 690 nm is used as calibration.
(3) Determination of Nitrate Concentration: […]
7) Reading the OD value at 540 nm with a microplate reader and the value at 690 nm is used as calibration.

ovariectomized rats [2] = assay: Bone density detection by Micro-CT of the upper tibia in the ovariectomized rat osteoporosis model; format: in vivo, SD rats; conditions: OVX rats, 12 weeks, vs OVX group
TGF-β1, IFN-γ and IL-17 = assay: Detection of TGF-β1, IFN-γ and IL-17 in serum; format: in vivo, SD rats; conditions: OVX rats, drinking water with nitrate, 12 weeks, vs OVX group, *P<0.05
From the text: as §1
(2) Detection of TGF-β1, IFN-γ and IL-17
1) The serum is diluted for 10 times, and 0.1 ml of which is placed into the 96-well plate of the kit. At the same time, the standard in the kit is taken and diluted in proportion, and then placed into the 96-well plate and incubated at 37° C./at room temperature for 30 minutes/1 hour according to the instructions. The obtained object is washed with a buffer for 3 times and each time lasts for 3 minutes.
2) 100 μl enzyme-labeled antibody is added for incubating for 15 minutes/30 minutes at 37° C./at room temperature. The obtained object is washed for 3 times and each time lasts for 3 minutes.
3) 100 μl substrate solution is added and then incubated for 15 minutes at room temperature/37° C.
4) 100 μl stop solution is added to stop the reaction for 5 minutes.
5) The readings of the enzyme labeled instrument at 450 nm is obtained.

[3] = test system: BMMSCs of ovariectomized rats; assay: BMMSC proliferation by the CCK8 method (cells cultured from treated rats); format: cell-based, SD rats; conditions: third generation cells from OVX rats given drinking water with nitrate, vs OVX group, *P<0.05
From the text: as §1
(§2) After necropsy, the skin of the hind limbs was removed. After exposing the femur and tibia, the bone marrow was extracted with a 1 mL syringe to flush out from the stump. Cells were cultured in the α-MEM complete medium (containing 10% of bovine serum), and subcultured after the cells were clonally grown until 80% of the fusion.
100 μl of cell suspension was inoculated in the 96-well plate, and the plate was pre-cultured in the incubator for 24 hours (under the condition of 37° C., 5% CO2). Then the plate was incubated in an incubator for 72 hours. 100 μl of culture medium was added to each well and 10 μl of CCK-8 solution was added to each hole. After 2 hours, the absorbance at 450 nm was measured with an enzyme labeled instrument.

ovariectomized rats [4] = assay: Tibia weight, body weight and adverse reactions in ovariectomized rats; format: in vivo, SD rats; conditions: OVX rats
From the text: as §1

[5] = test system: regulatory T lymphocytes (Treg); assay: Detection of the peripheral blood regulatory T cell ratio by flow cytometry; format: in vivo, SD rats; conditions: OVX rats, drinking water with nitrate, 12 weeks, vs OVX group, *P<0.05
From the text: as §1
(1) The Detection of the Peripheral Blood Regulatory T Cell Ratio in the Rats
1) Blood was collected from the abdominal aorta of the rats in each group and the serum was collected.
2) 100 μl 0.1% BSA is added for resuspending, and then Anti-CD4, Anti-CD25 are added for incubating on ice for 30 minutes while avoiding light.
3) The obtained mixture is centrifuged at 1500 rpm for 10 minutes, and then the supernatant is removed and 0.1% BSA is added for resuspending.
4) The membrane-permeation solution is added on 4° C., 10 minutes.
5) The obtained mixture is centrifuged at 1500 rpm for 10 minutes, and then the supernatant is removed and 0.1% BSA is added for resuspending.
6) Anti-Foxp3 is added for incubating on ice for 30 minutes while avoiding light. […]

[6] = test system: BMMSCs of ovariectomized rats; assay: BMMSC osteogenic differentiation, alizarin red staining (cells cultured from treated rats); format: cell-based, SD rats; conditions: BMMSC from OVX rats given drinking water with nitrate, after 21 days of osteogenesis induction, vs OVX group, *P<0.05
From the text: as §1, §2
Preparation of osteoinductive medium: adding 2 mmol/L glutamine, 100 U/ml penicillin and 100 μg/ml streptomycin, 10 mM β-glycerophosphate sodium, and 10 nM Dexamethasone and 50 mg/L vitamin C to 10% fetal bovine serum α-MEM medium. […]

[7] = sodium nitrate 2.5 mmol/L in drinking water, *P<0.05

O=[N+]([O-])[O-].[Na+] [nitrate, sodium nitrate]
content of nitrate in serum (FIG. 3A) [1]: significantly increased | content of nitrite in serum (FIG. 3B) [1]: significantly increased | loss of tibial bone mass (MicroCT of the upper tibia, FIG. 1B) (ovariectomized rats [2]; sodium nitrate 2.5 mmol/L in drinking water (about 0.5 mmol/Kg bw daily)): significantly relieved | bone density (BMD), MicroCT quantitative analysis (FIG. 1C) (ovariectomized rats [2]; [7]): partially recover | bone volume fraction (BV/TV), MicroCT quantitative analysis (FIG. 1D) (ovariectomized rats [2]; [7]): partially recover | trabecular number (Tb.N), MicroCT quantitative analysis (FIG. 1F) (ovariectomized rats [2]; [7]): partially recover | trabecular thickness (Tb.Th), MicroCT quantitative analysis (FIG. 1E) (ovariectomized rats [2]; [7]): partially recover | level of IFN-γ in serum (FIG. 4C) (TGF-β1, IFN-γ and IL-17): alleviate the up-regulation | level of IL-17 in serum (FIG. 4D) (TGF-β1, IFN-γ and IL-17): alleviate the up-regulation | level of TGF-β1 in serum (FIG. 4B) (TGF-β1, IFN-γ and IL-17): alleviate the down-regulation | proliferation of BMMSCs, OD450 value by CCK8 (FIG. 5A) [3]: significantly reduced the proliferation | adverse reactions (ovariectomized rats [4]; nitrate in drinking water, at the time of preservation of bone mass): no obvious adverse reactions | body weight (weight gain) (FIG. 2B) (ovariectomized rats [4]; sodium nitrate 2.5 mmol/L in drinking water, 12 weeks): no significant effect on the weight gain | tibia weight (FIG. 2A) (ovariectomized rats [4]; sodium nitrate 2.5 mmol/L in drinking water, 12 weeks, vs OVX group): relieve the decrease of tibia weight | proportion of regulatory T lymphocytes in peripheral blood CD4 positive cells (FIG. 4A) [5]: reduce the decline | osteogenic differentiation of BMMSCs, alizarin red staining and quantification (FIG. 5B) [6]: significantly enhanced osteogenic differentiation
